IC50 data for three molecules are collected here from patent publication US7476764B2, “Phenylcarboxyamides as beta-secretase inhibitors” (Bristol-Myers Squibb Company, priority 2005, dated 2009).

Where a name gives a salt, the structure may show the parent alone.

In this experiment the target is T1, BACE1 enzyme (Homo sapiens, UniProt P56817).
T1 construct: The HEK293-9B.A1 cell line, which overexpresses the BACE1 enzyme, was derived from HEK293 cells; endogenous in cells; washed 48,000 x g pellet of the cell homogenate
T1 sequence (P56817 46-501): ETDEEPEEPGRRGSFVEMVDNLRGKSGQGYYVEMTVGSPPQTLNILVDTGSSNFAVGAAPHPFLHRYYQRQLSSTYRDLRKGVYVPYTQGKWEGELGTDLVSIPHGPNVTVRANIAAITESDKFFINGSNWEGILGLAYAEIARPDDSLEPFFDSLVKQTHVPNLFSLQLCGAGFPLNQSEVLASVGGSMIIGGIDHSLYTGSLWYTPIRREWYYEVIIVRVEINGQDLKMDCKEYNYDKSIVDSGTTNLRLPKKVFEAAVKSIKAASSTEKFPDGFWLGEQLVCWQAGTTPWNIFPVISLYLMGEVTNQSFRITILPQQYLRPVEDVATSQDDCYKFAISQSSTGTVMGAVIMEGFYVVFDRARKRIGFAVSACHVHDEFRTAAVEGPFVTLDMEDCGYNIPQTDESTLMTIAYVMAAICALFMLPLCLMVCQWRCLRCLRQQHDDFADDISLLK
In words: Radioligand displacement assay with a radiolabeled BACE inhibitor on HEK293-9B.A1 cell homogenate. Type of experiment: binding. The following applies: displacement of 1 nM tritiated radioligand, HEK293-9B.A1 homogenate, pH 5.0, 1.5 hr at 25° C.; read-out: Activity Rating (activity based on IC50 values).
Take `COc1cccc(CNC[C@@H](O)[C@H](Cc2cc(F)cc(F)c2)NC(=O)c2cc(/C(C)=N/OCC(C)C)cc(N(c3ccccc3)S(C)(=O)=O)c2)c1` [Example 41, N-((2S,3R)-4-(3-methoxybenzylamino)-1-(3,5-difluorophenyl)-3-hydroxybutan-2-yl)-3-((E)-1-(isobutoxyimino)ethyl)-5-(N-phenylmethan-10-ylsulfonamido)benzamide]: the IC50 lay within 100 to 1000 nM.

Regarding `C=CCO/N=C(\C)c1cc(C(=O)N[C@@H](Cc2cc(F)cc(F)c2)[C@H](O)CNCc2cccc(OC)c2)cc(N(C)S(C)(=O)=O)c1` [Example 34, N-((2S,3R)-4-(3-methoxybenzylamino)-1-(3,5-difluorophenyl)-3-hydroxybutan-2-yl)-3-((E)-1-(allyloxyimino)ethyl)-5-(N-methylmethan-2-ylsulfonamido)benzamide TFA salt], the half-inhibitory concentration (IC50) was less than 100 nM.

With `CCCN(CCC)C(=O)c1cc(C(=O)N[C@@H](Cc2cc(F)cc(F)c2)[C@H](O)CNCc2cccc(OC)c2)cc(/C(C)=N/OCC(C)C)c1` [Example 6, N^1-((2S,3R)-4-(3-methoxybenzylamino)-1-(3,5-difluorophenyl)-3-hydroxybutan-2-yl)-5-((E)-1-(isobutoxyimino)ethyl)-N^3,N^3-dipropylisophthalamide TFA salt], the IC50 is less than 100 nM.
